As a reminder, the EC50 is the concentration giving half of the maximal effect.

Values joined by “and” are separate entries in the source; they are usually repeats but may differ in a detail not shown here. Identical values can stand only once.

Results on one compound are retold here after BindingDB's records for doi:10.1016/j.bmcl.2012.11.092 (Vanderbilt University Medical Center, 2012).

In the assay the target is T1, Muscarinic acetylcholine receptor M1 (Homo sapiens, UniProt P11229).
T1 sequence (P11229 whole entry): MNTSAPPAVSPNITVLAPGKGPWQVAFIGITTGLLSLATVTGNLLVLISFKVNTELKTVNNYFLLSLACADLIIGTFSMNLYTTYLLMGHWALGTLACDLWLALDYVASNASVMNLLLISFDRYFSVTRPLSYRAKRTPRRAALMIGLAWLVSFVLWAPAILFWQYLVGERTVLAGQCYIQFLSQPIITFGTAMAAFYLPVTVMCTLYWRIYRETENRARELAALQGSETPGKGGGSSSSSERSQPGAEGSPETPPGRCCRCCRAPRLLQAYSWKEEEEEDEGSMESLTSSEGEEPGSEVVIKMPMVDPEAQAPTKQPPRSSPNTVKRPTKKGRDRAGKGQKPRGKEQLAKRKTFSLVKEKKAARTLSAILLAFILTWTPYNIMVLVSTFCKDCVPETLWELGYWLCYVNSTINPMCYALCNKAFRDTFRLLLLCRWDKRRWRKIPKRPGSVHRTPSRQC
Nature of the assay: Positive allosteric modulator activity at human muscarinic M1 receptor by calcium mobilization assay. On the technique in general: Calcium flux is commonly read through the fluorescence of an indicator in the cells.

As to `Cn1cc(-c2ccc(CN3C(=O)C(O)(C(F)(F)F)c4ccccc43)c(F)c2)cn1` (stereo unspecified), the EC50 is 3.31 µM and 3.3 µM.
